Data from ChEMBL document CHEMBL3407452, “Linear and branched alkyl-esters and amides of gallic acid and other (mono-, di- and tri-) hydroxy benzoyl derivatives as promising anti-HCV inhibitors” (Eur J Med Chem, 2015).
The source made the active and inactive calls. No cut-off for these calls is given here.

How the values were obtained:
[1] = tested on: Human immunodeficiency virus 1; experiment: Antiviral activity against HIV1 3B infected in human CEM cells assessed as reduction in virus-induced cytopathicity after 4 to 5 days by microscopy based syncytium cell formation assay; assay type: functional, organism-based, CCRF-CEM
[2] = tested on: Human immunodeficiency virus 2; experiment: Antiviral activity against HIV2 ROD infected in human CEM cells assessed as reduction in virus-induced cytopathicity after 4 to 5 days by microscopy based syncytium cell formation assay; assay type: functional, organism-based, ISOLATE ROD, CCRF-CEM
Hepatitis C virus = experiment: Antiviral activity against HCV genotype 1b I389luc-ubi-neo/NS3-3'/5.1 replicons infected in human Huh5-2 HCV subgenomic replicon-containing cells assessed as reduction in virus replication after 3 days by luciferase reporter gene assay; assay type: functional, Hepacivirus hominis; conditions: for EC90: Hepacivirus hominis
[3] = Cytotoxicity against human CEM cells assessed as inhibition of cell proliferation; assay type: cell-based; conditions: CEM cells (CCRF-CEM)
Vaccinia virus = experiment: Antiviral activity against vaccinia virus; assay type: functional, organism-based; conditions: Orthopoxvirus vaccinia
[4] = tested on: Vesicular stomatitis virus; experiment: Antiviral activity against vesicular stomatitis virus; assay type: functional, organism-based
Coxsackievirus B4 = experiment: Antiviral activity against human coxsackievirus B4; assay type: functional, organism-based
[5] = tested on: Respiratory syncytial virus; experiment: Antiviral activity against RSV; assay type: functional, organism-based
Human respirovirus 3 = experiment: Antiviral activity against human parainfluenza virus 3; assay type: functional, organism-based
Reovirus sp. = experiment: Antiviral activity against reovirus; assay type: functional, organism-based
Sindbis virus = experiment: Antiviral activity against sindbis virus; assay type: functional, organism-based
Influenza A virus H3N2 = experiment: Antiviral activity against influenza A virus H3N2; assay type: functional, organism-based
Influenza A virus = experiment: Antiviral activity against influenza A virus (H1N1); assay type: functional, organism-based
Punta Toro virus = experiment: Antiviral activity against punta toro virus; assay type: functional, organism-based
Feline coronavirus = experiment: Antiviral activity against feline coronavirus; assay type: functional, organism-based
Felid alphaherpesvirus 1 = experiment: Antiviral activity against feline herpesvirus; assay type: functional, organism-based
Chikungunya virus = experiment: Antiviral activity against chikungunya virus; assay type: functional
[6] = Human immunodeficiency virus 1, 3B, CCRF-CEM, read-out: EC50
[7] = Human immunodeficiency virus 2, ISOLATE ROD, CCRF-CEM, read-out: EC50

| Compound | EC50 ([1]; ccrf-cem) | EC50 ([2]; ccrf-cem) | EC50 (Hepatitis C virus) | EC90 (Hepatitis C virus) | further results |
| --- | --- | --- | --- | --- | --- |
| COc1cc(C(=O)NCCCCCCCCNC(=O)c2cc(OC)c(OC)c(OC)c2)cc(OC)c1OC | Not Active | Not Active | Not Active | inactive |  |
| O=C(NCCNC(=O)c1ccccc1O)c1ccccc1O |  |  |  |  | EC50 [1, 6]: > 10 µM; EC50 [2, 7]: > 10 µM; CC50 [3]: 25 µM; Activity (Vaccinia virus): inactive; Activity [4]: inactive; Activity (Coxsackievirus B4): inactive; Activity [5]: inactive; Activity (Human respirovirus 3): inactive; Activity (Reovirus sp.): inactive; Activity (Sindbis virus): inactive; Activity (Influenza A virus H3N2): inactive; Activity (Influenza A virus): inactive; Activity (Punta Toro virus): inactive; Activity (Feline coronavirus): inactive; Activity (Felid alphaherpesvirus 1): inactive; Activity (Chikungunya virus): inactive |
| COc1cccc(C(=O)NCCCCCCCCCCCCNC(=O)c2cccc(OC)c2OC)c1OC | Not Active | Not Active | Not Active | inactive |  |
| O=C(NCCCCCCCCCCNC(=O)c1ccc(OCc2ccccc2)c(OCc2ccccc2)c1OCc1ccccc1)c1ccc(OCc2ccccc2)c(OCc2ccccc2)c1OCc1ccccc1 | Not Active | Not Active | Not Active | inactive |  |
| O=C(NCCNC(=O)c1ccccc1OCc1ccccc1)c1ccccc1OCc1ccccc1 | Not Active | Not Active | Not Active | inactive |  |
| COc1cc(C(=O)NCCN(CCN(CCN(CCNC(=O)c2cc(OC)c(OC)c(OC)c2)C(=O)c2cc(OC)c(OC)c(OC)c2)C(=O)c2cc(OC)c(OC)c(OC)c2)C(=O)c2cc(OC)c(OC)c(OC)c2)cc(OC)c1OC | Not Active | Not Active | Not Active | inactive |  |
| O=C(NCCCCNC(=O)c1cccc(O)c1O)c1cccc(O)c1O |  |  |  |  | EC50 [1, 6]: > 2 µM; CC50 [3]: 5.2 µM; Activity (Vaccinia virus): inactive; Activity [4]: inactive; Activity (Coxsackievirus B4): inactive; Activity [5]: inactive; Activity (Human respirovirus 3): inactive; Activity (Reovirus sp.): inactive; Activity (Sindbis virus): inactive; Activity (Influenza A virus H3N2): inactive; Activity (Influenza A virus): inactive; Activity (Punta Toro virus): inactive; Activity (Feline coronavirus): inactive; Activity (Felid alphaherpesvirus 1): inactive; Activity (Chikungunya virus): inactive |
| O=C(O)c1cc(O)c(O)c(O)c1 [GALLIC ACID] |  |  |  |  | EC50 [1, 6]: > 50 µM; EC50 [2, 7]: > 50 µM; CC50 [3]: > 250 µM; Activity (Vaccinia virus): inactive; Activity [4]: inactive; Activity (Coxsackievirus B4): inactive; Activity [5]: inactive; Activity (Human respirovirus 3): inactive; Activity (Reovirus sp.): inactive; Activity (Sindbis virus): inactive; Activity (Influenza A virus H3N2): inactive; Activity (Influenza A virus): inactive; Activity (Punta Toro virus): inactive; Activity (Feline coronavirus): inactive; Activity (Felid alphaherpesvirus 1): inactive; Activity (Chikungunya virus): inactive |
| COc1cc(C(=O)NCCCCCCNC(=O)c2cc(OC)c(OC)c(OC)c2)cc(OC)c1OC | Not Active | Not Active | Not Active | inactive |  |
| O=C(NCCCCCCCCCCCCNC(=O)c1ccc(OCc2ccccc2)c(OCc2ccccc2)c1OCc1ccccc1)c1ccc(OCc2ccccc2)c(OCc2ccccc2)c1OCc1ccccc1 | Not Active | Not Active | Not Active | inactive |  |
| O=C(NCCCCCCCCNC(=O)c1ccc(OCc2ccccc2)c(OCc2ccccc2)c1OCc1ccccc1)c1ccc(OCc2ccccc2)c(OCc2ccccc2)c1OCc1ccccc1 | Not Active | Not Active | Not Active | inactive |  |
| O=C(NCCN(CCNC(=O)c1ccc(OCc2ccccc2)c(OCc2ccccc2)c1OCc1ccccc1)CCNC(=O)c1ccc(OCc2ccccc2)c(OCc2ccccc2)c1OCc1ccccc1)c1ccc(OCc2ccccc2)c(OCc2ccccc2)c1OCc1ccccc1 | Not Active | Not Active | Not Active | inactive |  |
| CN[C@@H]1[C@H](O[C@@H]2OC[C@@H](O)[C@H](O)[C@H]2O)[C@@H](O)[C@H](O[C@H]2c3cc(C)c(C(=O)N[C@H](C)C(=O)O)c(O)c3-c3c(cc4c(c3O)C(=O)c3cc(OC)cc(O)c3C4=O)[C@@H]2O)O[C@@H]1C [PRADIMICIN A] |  |  |  |  | EC50 [1, 6]: 3.3 µM; CC50 [3]: > 100 µM |
| O=C(NCCCOCCOCCOCCCNC(=O)c1ccc(OCc2ccccc2)c(OCc2ccccc2)c1OCc1ccccc1)c1ccc(OCc2ccccc2)c(OCc2ccccc2)c1OCc1ccccc1 | Not Active | Not Active | Not Active | inactive |  |
| O=C(NCCCCCCNC(=O)c1ccc(OCc2ccccc2)c(OCc2ccccc2)c1OCc1ccccc1)c1ccc(OCc2ccccc2)c(OCc2ccccc2)c1OCc1ccccc1 | Not Active | Not Active | Not Active | inactive |  |
| O=C(NCCCCNC(=O)c1ccc(OCc2ccccc2)c(OCc2ccccc2)c1OCc1ccccc1)c1ccc(OCc2ccccc2)c(OCc2ccccc2)c1OCc1ccccc1 | Not Active | Not Active | Not Active | inactive |  |
| COc1cc(C(=O)NCCCCCCCCCCCCNC(=O)c2cc(OC)c(OC)c(OC)c2)cc(OC)c1OC | Not Active | Not Active | Not Active | inactive |  |
| COc1cccc(C(=O)NCCCCNC(=O)c2cccc(OC)c2OC)c1OC | Not Active | Not Active | Not Active | inactive |  |
| O=C(NCCCCN(CCCNC(=O)c1ccc(OCc2ccccc2)c(OCc2ccccc2)c1OCc1ccccc1)C(=O)c1ccc(OCc2ccccc2)c(OCc2ccccc2)c1OCc1ccccc1)c1ccc(OCc2ccccc2)c(OCc2ccccc2)c1OCc1ccccc1 | Not Active | Not Active | Not Active | inactive |  |
| COc1cc(C(=O)NCCN(CCNC(=O)c2cc(OC)c(OC)c(OC)c2)CCNC(=O)c2cc(OC)c(OC)c(OC)c2)cc(OC)c1OC | Not Active | Not Active | Not Active | inactive |  |
| O=C(NCCCCCCCCCCCCNC(=O)c1ccccc1OCc1ccccc1)c1ccccc1OCc1ccccc1 | Not Active | Not Active | Not Active | inactive |  |
| O=C(NCCN(CCNC(=O)c1cc(O)c(O)c(O)c1)C(=O)c1cc(O)c(O)c(O)c1)c1cc(O)c(O)c(O)c1 |  |  |  |  | EC50 [1, 6]: > 10 µM; EC50 [2, 7]: > 10 µM; CC50 [3]: 34 µM; Activity (Vaccinia virus): inactive; Activity [4]: inactive; Activity (Coxsackievirus B4): inactive; Activity [5]: inactive; Activity (Human respirovirus 3): inactive; Activity (Reovirus sp.): inactive; Activity (Sindbis virus): inactive; Activity (Influenza A virus H3N2): inactive; Activity (Influenza A virus): inactive; Activity (Punta Toro virus): inactive; Activity (Feline coronavirus): inactive; Activity (Felid alphaherpesvirus 1): inactive; Activity (Chikungunya virus): inactive |
| COc1cc(C(=O)NCCCCCCCCCCNC(=O)c2cc(OC)c(OC)c(OC)c2)cc(OC)c1OC | Not Active | Not Active | Not Active | inactive |  |
| COc1cc(C(=O)NCCCCNC(=O)c2cc(OC)c(OC)c(OC)c2)cc(OC)c1OC | Not Active | Not Active | Not Active | inactive |  |
| O=C(NCCNC(=O)c1cccc(O)c1O)c1cccc(O)c1O |  |  |  |  | EC50 [1, 6]: > 10 µM; EC50 [2, 7]: > 10 µM; CC50 [3]: 19 µM; Activity (Vaccinia virus): inactive; Activity [4]: inactive; Activity (Coxsackievirus B4): inactive; Activity [5]: inactive; Activity (Human respirovirus 3): inactive; Activity (Reovirus sp.): inactive; Activity (Sindbis virus): inactive; Activity (Influenza A virus H3N2): inactive; Activity (Influenza A virus): inactive; Activity (Punta Toro virus): inactive; Activity (Feline coronavirus): inactive; Activity (Felid alphaherpesvirus 1): inactive; Activity (Chikungunya virus): inactive |
| COc1cc(C(=O)NCCN(CCNC(=O)c2cc(OC)c(OC)c(OC)c2)C(=O)c2cc(OC)c(OC)c(OC)c2)cc(OC)c1OC | Not Active | Not Active | Not Active | inactive |  |
| C[C@H](Cn1cnc2c(N)ncnc21)OCP(=O)(O)O [TENOFOVIR ANHYDROUS] |  |  |  |  | CC50 [3]: > 100 µM |
| COc1cc(C(=O)NCCCCN(CCCNC(=O)c2cc(OC)c(OC)c(OC)c2)C(=O)c2cc(OC)c(OC)c(OC)c2)cc(OC)c1OC | Not Active | Not Active | Not Active | inactive |  |
| COc1cccc(C(=O)NCCNC(=O)c2cccc(OC)c2OC)c1OC | Not Active | Not Active | Not Active | inactive |  |
| O=C(NCCCCNC(=O)c1ccccc1OCc1ccccc1)c1ccccc1OCc1ccccc1 | Not Active | Not Active | Not Active | inactive |  |
